Measured values published in US6207677A, “Piperidine derivatives having anxiolytic effect” (H. Lundbeck A/S, priority 1991, dated 2001).

What follows are compounds tested against sigma receptors (assay: Inhibition of 3H-DTG binding to sigma receptors in rat brain in vitro). Settings: 2 nM 3H-DTG, rat brain without cerebellum, 25° C., 20 min.
Protocol: INHIBITION OF 3H-DTG BINDING TO SIGMA RECEPTORS IN RAT BRAIN IN VITRO
By this method the inhibition by drugs of the binding of 2 nM ^3 H-DTG (1,3,di-o-tolyl guanidine) to sigma receptors in homogenates or membranes from rat brain without cerebellum is determined in vitro as modified from Weber et al. Proc. Natl. Acad. Sci. 1986, 83,8784.
Homogenate: Rats (150-250 g) are decapitated and the brains (without cerebellum) quickly removed and placed on ice, weighed and homogenized in 100 vol ice-cold (0° C.) 50 mM Tris-buffer (pH 7.7) in an ethanol rinsed glass/teflon homogenizer at 0° C. and kept on ice until use.
P2-membranes: Brains are homogenized in 10 vol 0.32 M sucrose in an ethanol rinsed glass/teflon homogenizer with 10 strokes up and down. The homogenate is centrifuged for 10 min at 900×gm at 4° C. The supernatant is decanted and centrifuged for 20 min at 50,000 gm at 4° C. The resulting pellet is resuspended in 10 vol ice-cold […] Tris-buffer (pH 7.7) and incubated for 30 min. at 37° C. The membrane suspension is then centrifuged for further 20 min. at 50,000 gm at 4° C. The pellet is resuspended in 50 vol. of ice-cold Tris-buffer and used immediately.
0.5 ml 50 mM Tris-buffer (pH 7.7), 0.25 ml displacer (6×100 μM DTG, 6× [test compound], or Tris-buffer), and 0.25 ml 6×2 nM. ^3 H-DTG are mixed into 5 ml s plastic test tubes and kept at 4° C. until use. The binding reaction is initiated by mixing 0.5 ml tissue suspension into this solution and incubate at 25° C. for 20 min. Glass fiber filters (Whatman GF/B) are placed on the filter machine which is then closed tightly. Just before filtration vacuum is applied, and the filters washed with 0.1% PEI solution from a spray bottle followed by one wash with Tris-buffer.
The binding reaction is stopped by filtration of the assay mixture at reduced pressure (750 mbar) followed by further 3 washes with 5 ml ice-cold Tris-buffer. The filters are then placed in counting vials and 4 ml scintillation solution added. The vials are counted in a Beckmann scintillation counter.
50 mM Tris-buffer pH 7.7: 7.38 g Trizma--7.7 plus distilled H2 O ad 1 liter. 100 ml 10% polyethylenimine (PEI): 100 ml dest. H2 O is added to approx. 20 g 50% PEI which is solubilized by stirring and heating. Diluted (1+99) before use. 6×2 nM ^3 H-DTG: The exact volume depends on the actual concentration of the batch, but is made as close as possible to 12 nM. The containers for the radioactive solution is rinsed in 96% ethanol before use.
^3 H-DTG was obtained from NEN Research Products, Du Pont Denmark. Specific activity 62.3 Ci/mmol.
The known sigma receptor ligands BMY 14802 and rimcazole were included in the test for comparison purposes.
With `c1ccc2c(c1)COC21CCN(CCCCc2csc3ccccc23)CC1` [Compound 10a, 1'-(4-(Benzo[b]thiophen-3-yl)-1-butyl)spiro[isobenzofuran-1(3H),4'-piperidine]] the IC50 was 0.09 nM. `c1ccc2c(c1)COC1(CCN(CCCCc3csc4ccccc34)CC1)C2` [Compound 10b, 1,4-Dihydro-1'-(4-(benzo[b]thiophen-3-yl)-1-butyl)spiro[3H-2-benzopyran-3,4'-piperidine]] showed an IC50 of 1.3 nM. `Cc1ccc2scc(CCCCN3CCC4(CC3)OCc3ccccc34)c2c1` [Compound 10c, 1'-(4-(5-Methylbenzo[b]thiophen-3-yl)-1-butyl)spiro[isobenzofuran-1(3H),4'-piperidine]] was tested, and the IC50 was 0.35 nM. `Fc1ccc(C2CCN(CCCC3COc4ccc(F)cc43)CC2)cc1` (centres unmarked) [Compound 11a, 2,3-Dihydro-5-fluoro-3-[3-(4-(4-fluorophenyl)-1-piperidinyl)-1-propyl]benzofuran] showed an IC50 of 0.31 nM. Work on `Fc1ccc2c(c1)C(CCCCN1CCC3(CC1)OCc1ccccc13)CO2` (centres unmarked) [Compound 12, 1'-(4-(2,3-Dihydro-5-fluoro-benzofuran-3-yl)-1-butyl]-spiro[isobenzofuran-1(3H),4'-piperidine]] yielded an IC50 of 0.3 nM. In the case of `c1ccc2c(c1)NCC2CCCCN1CCC2(CC1)Oc1ccccc1O2` (centres unmarked) [Compound 13a, 1'-[4-(2,3-Dihydro-3-indolyl)-1-butyl]spiro[1,3-benzodioxole-2,4'-piperidine]], the IC50 is reported as 3.7 nM. Work on `c1ccc2c(c1)COC21CCN(CCCCC2CNc3ccccc32)CC1` (centres unmarked) [Compound 13b, 1'-[4-(2,3-Dihydro-3-indolyl)-1-butyl]spiro[isobenzofuran-1(3H),4'-piperidine]] yielded an IC50 of 1 nM. With `c1ccc2c(c1)COCC21CCN(CCCCC2CNc3ccccc32)CC1` (centres unmarked) [Compound 13c, 1'-[4-(2,3-Dihydro-3-indolyl)-1-butyl]spiro[1H-2-benzopyran-4(3H) ,4'-piperidine]] the IC50 was 4.8 nM. `COc1ccccc1C1CCN(CCCCC2CNc3ccccc32)CC1` (centres unmarked) [Compound 13d, 2,3-Dihydro-3-[4-(4-(2-methoxyphenyl)-1-piperidinyl)-1-butyl]indol] showed an IC50 of 2.1 nM. Compound `Fc1ccc(-n2cc(OCCN3CCC4(CC3)OCc3ccccc34)c3cc(Cl)ccc32)cc1` [Compound 14a, 1'-[2-[5-Chloro-1-(4-fluorophenyl)-3-indolyloxy]-1-ethyl]spiro[isobenzofuran-1(3H)piperidine]] has an IC50 of 24 nM. Work on `Fc1ccc(C2CCN(CCOc3cn(-c4ccc(F)cc4)c4ccc(Cl)cc34)CC2)cc1` [Compound 14b] yielded an IC50 of 3.8 nM. `Fc1ccc2occ(CCCN3CCC4(CC3)OCc3ccccc34)c2c1` [Compound 15, 1'-[3-(5-Fluorobenzofuran-3-yl)-1-propyl)spiro[isobenzofuran-1(3H) ,4'-piperidine]] showed an IC50 of 0.42 nM. `Fc1ccc2occ(CCCCN3CCC4(CC3)OCc3ccccc34)c2c1` [Compound 16, 1'-[4-(5-Fluorobenzofuran-3-yl)-1-butyl]-spiro[isobenzofuran-1(3H) ,4'-piperidine]] showed an IC50 of 0.15 nM. For `Fc1ccc(-n2nc(CCCCN3CCC4(CC3)OCc3ccccc34)c3cc(C(F)(F)F)ccc32)cc1` [Compound 17a, 1'-[4-[1-(4-Fluorophenyl)-5-trifluoromethylindazol-3-yl]-1-butyl]spiro[isobenzofuran-1(3H),4'-piperidine]], the IC50 was 0.11 nM. `FC(F)(F)c1ccc2[nH]nc(CCCCN3CCC4(CC3)OCc3ccccc34)c2c1` [Compound 18a, 1'-[4-(5-Trifluoromethylindazol-3-yl)-1-butyl]-spiro[isobenzofuran-1(3H),4'-piperidine]] showed an IC50 of 0.56 nM. Compound `c1ccc2c(c1)COC21CCN(CCCCc2noc3ccccc23)CC1` [Compound 19a, 1'-(4-(1,2-Benzisoxazol-3-yl)-1-butyl)spiro[isobenzofuran-1(3H) ,4'-piperidine]] has an IC50 of 0.08 nM. Work on `Fc1ccc(C2CCN(CCCCc3noc4ccccc34)CC2)cc1` [Compound 19b, 3-[4-(4-(4-Fluorophenyl)-1-piperidyl)-1-butyl]-1,2-benzisoxazole] yielded an IC50 of 0.49 nM. `c1ccc2c(c1)COC1(CCN(CCCCc3noc4ccccc34)CC1)C2` [Compound 19c, 1-(4-(1,2-Benzisoxazol-3-yl)-1-butyl)spiro[3H-2-benzopyran-3,4'-piperidine]] was tested, and the IC50 was 0.84 nM. `Clc1cccc(Cl)c1C1CCN(CCCCc2noc3ccccc23)CC1` [Compound 19d, 3-[4-(4-(2,6-Dichlorophenyl)-1-piperidyl)-1-butyl]-1,2-benzisoxazol] was tested, and the IC50 was 4.4 nM. In the case of `c1ccc2c(c1)COC21CCN(CCCc2noc3ccccc23)CC1` [Compound 20, 1'-(3-(1,2-Benzisoxazol-3-yl)-1-propyl)spiro[isobenzofuran-1(3H) ,4'-piperidine]], the IC50 is reported as 0.63 nM. Compound `Fc1ccc(C2CCN(CCCOc3nsc4ccccc34)CC2)cc1` [Compound 21, 3-[3-(4-(4-Fluorophenyl)-piperidin-1-yl)-1-propyloxy]-1,2-benzisothiazole] has an IC50 of 0.2 nM. With `c1ccc2c(c1)COC21CCN(CCCCc2nsc3ccccc23)CC1` [Compound 22, 1'-(4-(1,2-Benzisothiazol-3-yl)-1-butyl)spiro[isobenzofuran-1(3H),4'-piperidine]] the IC50 was 0.05 nM. `Fc1ccc(C2=CC3CCC(C2)N3CCCCc2cn(-c3ccc(F)cc3)c3ccccc23)cc1` (centres unmarked) [Compound 23, 1-(4-Fluorophenyl)-3-[4-[3-(4-fluorophenyl)-8-azabicyclo[3,2,1]-oct-2-en-8-yl]-1-butyl]-indol] gave an IC50 of 2.5 nM. In the case of `Fc1ccc(C2CC3CCC(C2)N3CCCCc2noc3ccccc23)cc1` (centres unmarked) [Compound 24], the IC50 is reported as 1.9 nM. Work on `c1ccc(CCCCN2CCC3(CC2)Oc2ccccc2O3)cc1` [Compound 25a, 1'-(4-Phenyl-1-butyl)-spiro[1,3-benzodioxole-2,4'-piperidine]] yielded an IC50 of 11 nM. Compound `c1ccc2c(c1)OC1(CCN(CCCCc3c[nH]c4ccccc34)CC1)O2` [Compound 25b, 1'-[4-(3-Indolyl)-1-butyl]-spiro[1.3-benzodioxole-2,4'-piperidine]] has an IC50 of 36 nM. For `OC(CCCN1CCC2(CC1)OCc1ccccc12)c1ccc(F)cc1` (centres unmarked) [Compound 26a, 1'-[4-(4-Fluorophenyl)-4-hydroxy-1-butyl]-spiro[isobenzofuran-1(3H),4'-piperidine]], the IC50 was 0.89 nM. Compound `OC(CCCN1CCC2(CC1)OCc1ccccc12)c1ccccc1` (centres unmarked) [Compound 26b, 1'-(4-Phenyl-4-hydroxy-1-butyl)-spiro[isobenzofuran-1(3H),4'-piperidine]] has an IC50 of 1.9 nM. `OC(CCCN1CCC2(CC1)OCc1ccccc12)C1CCCCC1` (centres unmarked) [Compound 26c, 1'-(4-Cyclohexyl-4-hydroxy-1-butyl)spiro[isobenzofuran-1(3h),4'-piperidine]] gave an IC50 of 0.14 nM. `C1=C(CCCCN2CCC3(CC2)OCc2ccccc23)c2ccccc2C1` [Compound 27, 1'-(4-(1H-Inden-3-yl)-1-butyl)-spiro[isobenzofuran-1(3H) ,4'-piperidine]] was tested, and the IC50 was 0.11 nM. In the case of `c1ccc2c(c1)CCC2CCCCN1CCC2(CC1)OCc1ccccc12` (centres unmarked) [Compound 28, 1'-[4-(Indan-1-yl)-1-butyl]-spiro(isobenzofuran-1(3H),4'-piperidine]], the IC50 is reported as 0.15 nM. With `C(=CC1CCc2ccccc21)CCN1CCC2(CC1)OCc1ccccc12` (centres unmarked) [Compound 29, 1'-[4-(1-Indanyl)-but-3-en-1-yl]-spiro[isobenzofuran-1(3H),4'-piperidine]] the IC50 was 0.12 nM.
